According to US7300946B2, “N-(substituted arylmethyl)-4-(disubstituted methyl) piperidines and pyridines” (Bayer CropScience AG, priority 2002, dated 2007):

System: tobacco budworm (Heliothis virescens [Fabricius])
Assay: surface-treated diet test against the tobacco budworm
Type: in vivo
Conditions: tobacco budworm second instar larvae, 0.25 millimoles of candidate insecticide on the surface of the diet, five-day exposure; for Percent Mortality: compared to total number of insects infested; for Percent Growth Inhibition: inhibition of insect weight relative to untreated controls
Summary of the method: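 Wheat germ artificial diet surface-treated with 40 µL of 50 mM DMSO stock diluted 1:7 in 1:1 water/acetone (0.25 millimolar on diet), or sub-multiples for rate tests. One second-instar larva per well, 25° C, 60% RH, 5 days; percent weight inhibition vs DMSO controls and percent mortality.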

Row | SMILES | Percent Mortality (surface-treated diet) [%] | Percent Growth Inhibition (surface-treated diet) [%] | Percent Mortality [%] | Percent Growth Inhibition [%]
1 | CC(C)OC(=O)Nc1ccc(CN2CCC(C(OC(=O)Nc3cc(F)cc(F)c3)c3cc(Cl)cc(Cl)c3)CC2)cc1 (centres unmarked) [Compound 510] | 100 | 100 | – | –
2 | CCn1nnc(-c2ccc(CN3CCC(C(OC(=O)Nc4ccc(Cl)c(Cl)c4)c4ccc(Oc5ccccc5)cc4)CC3)cc2)n1 (centres unmarked) [Compound 617] | 0 | 14 | – | –
3 | Cn1nnc(-c2ccc(CN3CCC(C(NC(=O)Oc4ccc(OC(F)(F)F)cc4)c4ccc(OC(F)(F)F)cc4)CC3)cc2)n1 (centres unmarked) [Compound 357] | 100 | 100 | – | –
4 | CC(NC(=O)OC(c1ccc(C(F)(F)F)cc1)C1CCN(Cc2ccc(Oc3ccccn3)cc2)CC1)c1ccccc1 (centres unmarked) [Compound 660] | 0 | 98 | – | –
5 | O=C(Nc1ccc(Cl)c(Cl)c1)OC(c1ccc(C(F)(F)F)cc1)C1CCN(Cc2ccc(Oc3ccccn3)cc2)CC1 (centres unmarked) [Compound 230] | 100 | 100 | – | –
6 | O=C(Nc1cc(F)cc(F)c1)OC(C1=CC[N+]([O-])(Cc2ccc(Oc3ncccn3)cc2)CC1)c1ccc(C(F)(F)F)cc1 (centres unmarked) [Compound 787] | – | – | 100 | 100
7 | CCCNC(=O)OC(c1ccc(C(F)(F)F)cc1)C1CCN(Cc2ccc(Oc3ccccn3)cc2)CC1 (centres unmarked) [Compound 427] | 33 | 100 | – | –
8 | COc1nc(OC)nc(Oc2ccc(CN3CCC(C(OC(=O)Nc4cc(F)cc(F)c4)c4ccc(C(F)(F)F)cc4)CC3)cc2)n1 (centres unmarked) [Compound 740] | – | – | 100 | 100
9 | COc1ccc(CN2CCC(C(OC(=O)Nc3cc(F)cc(F)c3)c3ccc(OC(F)(F)F)cc3)CC2)cc1 (centres unmarked) [Compound 469] | 17 | 100 | – | –
10 | CCON=Cc1ccc(CN2CCC(C(OC(=O)Nc3ccc(OC)cc3)c3ccc(C(F)(F)F)cc3)CC2)cc1 (centres unmarked) [Compound 209] | 100 | 100 | – | –
11 | C#CCOC(=O)Nc1ccc(CN2CCC(=C(c3ccc(C(F)(F)F)cc3)c3ccc(C(F)(F)F)cc3)CC2)cc1 [Compound 802] | – | – | 100 | 100
12 | O=C(Nc1cccc(Cl)c1)OC(c1ccc(C(F)(F)F)cc1)C1CCN(Cc2ccc(Oc3ccccn3)cc2)CC1 (centres unmarked) [Compound 664] | 100 | 100 | – | –
13 | FC(F)(F)c1ccc(C(OC(=S)Nc2cccc(C(F)(F)F)c2)C2CCN(Cc3ccc(Oc4ccccn4)cc3)CC2)cc1 (centres unmarked) [Compound 692] | 100 | 100 | – | –
14 | O=C(Nc1ccc(F)cc1)OC(c1cccc(C(F)(F)F)c1)C1CCN(Cc2ccc(Oc3ccccn3)cc2)CC1 (centres unmarked) [Compound 653] | 100 | 100 | – | –
15 | O=C(Nc1ccc(Cl)cc1)OC(c1ccc(OC(F)(F)F)cc1)C1CCN(Cc2ccc(Oc3ncccn3)cc2)CC1 (centres unmarked) [Compound 733] | – | – | 100 | 100
16 | O=C(Nc1cccc(F)c1)OC(c1ccc(C(F)(F)F)cc1)C1CCN(Cc2ccc(Oc3ccccn3)cc2)CC1 (centres unmarked) [Compound 674] | 100 | 100 | – | –
17 | CCCOc1ccc(CN2CCC(C(OC(=O)Nc3cccc(C(F)(F)F)c3)c3cccc(C(F)(F)F)c3)CC2)cc1 (centres unmarked) [Compound 488] | 100 | 100 | – | –
18 | CC(C)OC(=O)c1ccc(CN2CCC(C(OC(=O)Nc3ccc(Cl)cc3)c3ccc(C(F)(F)F)cc3)CC2)cc1 (centres unmarked) [Compound 492] | 100 | 100 | – | –
19 | CCn1nnc(-c2ccc(CN3CCC(=C(c4ccccc4)c4ccc(Cl)cc4)CC3)cc2)n1 [Compound 76] | 0 | 91 | – | –

Row | SMILES | Percent Mortality (surface-treated diet) [%] | Percent Growth Inhibition (surface-treated diet) [%] | Percent Mortality [%] | Percent Growth Inhibition [%]
20 | CC(C)OC(=O)Nc1ccc(C[N+]2([O-])CCC(=C(c3ccc(Cl)c(Cl)c3)c3ccc(Cl)c(Cl)c3)CC2)cc1 (centres unmarked) [Compound 833] | – | – | 100 | 100
21 | O=C(Nc1ccc(C(F)(F)F)cc1)OC(c1ccc(F)cc1)C1CCN(Cc2ccc(Oc3ccccn3)cc2)CC1 (centres unmarked) [Compound 643] | 100 | 100 | – | –
22 | FC(F)(F)c1ccc(C(=C2CCN(Cc3ccc(Oc4cnccn4)cc3)CC2)c2ccc(C(F)(F)F)cc2)cc1 [Compound 825] | – | – | 83 | 100
23 | CC=CCOC(=O)Nc1ccc(C[N+]2([O-])CCC(=C(c3ccc(C(F)(F)F)cc3)c3ccc(C(F)(F)F)cc3)CC2)cc1 (centres unmarked) [Compound 837] | – | – | 100 | 100
24 | Cn1nnc(-c2ccc(CN3CCC(C(NC(=O)Oc4ccc(I)cc4)c4ccc(OC(F)(F)F)cc4)CC3)cc2)n1 (centres unmarked) [Compound 354] | 100 | 100 | – | –
25 | O=C(Nc1cc(F)cc(F)c1)OC(c1ccc(Cl)cc1)C1CCN(Cc2ccc(Oc3ncccn3)cc2)CC1 (centres unmarked) [Compound 714] | – | – | 100 | 100
26 | CCOC(=O)c1ccc(C[N+]2([O-])CCC(=C(c3ccc(C(F)(F)F)cc3)c3ccc(C(F)(F)F)cc3)CC2)cc1 (centres unmarked) [Compound 99] | 100 | 100 | – | –
27 | O=C(Nc1cc(F)cc(F)c1)OC(c1ccc(C(F)(F)F)cc1)C1CC[N+]([O-])(Cc2ccc(Oc3ncccn3)cc2)CC1 (centres unmarked) [Compound 765] | – | – | 100 | 100
28 | O=C(Nc1cc(F)cc(F)c1)OC(c1ccc(C(F)(F)F)cc1)C1CCN(Cc2ccc(Oc3ccccn3)cc2)CC1 (centres unmarked) [Compound 680] | 17 | 100 | – | –
29 | CCn1nnc(-c2ccc(CN3CCC(C(OC(=O)Nc4ccc(Cl)c(Cl)c4)c4cc(F)cc(F)c4)CC3)cc2)n1 (centres unmarked) [Compound 591] | 100 | 100 | – | –
30 | CNC(=S)OC(c1ccc(C(F)(F)F)cc1)C1CCN(Cc2ccc(Oc3ccccn3)cc2)CC1 (centres unmarked) [Compound 772] | – | – | 0 | 78
31 | CC(C)OC(=O)c1ccc(C[N+]2([O-])CCC(C(OC(=O)Nc3ccc(Cl)cc3)c3ccc(C(F)(F)F)cc3)CC2)cc1 (centres unmarked) [Compound 745] | – | – | 100 | 100
32 | O=C(Nc1ccc(Cl)nc1)OC(c1ccc(C(F)(F)F)cc1)C1CCN(Cc2ccc(Oc3ccccn3)cc2)CC1 (centres unmarked) [Compound 445] | 100 | 100 | – | –
33 | O=C(Nc1cc(F)cc(F)c1)OC(c1ccc(C(F)(F)F)cc1)C1CCN(Cc2ccc(Oc3cccc[n+]3[O-])cc2)CC1 (centres unmarked) [Compound 682] | 100 | 100 | – | –
34 | CCON=Cc1ccc(CN2CCC(C(OC(=O)Nc3ccccc3C(F)(F)F)c3ccc(C(F)(F)F)cc3)CC2)cc1 (centres unmarked) [Compound 203] | 100 | 100 | – | –
35 | O=C(Nc1cc(F)cc(F)c1)OC(c1ccc(C(F)(F)F)cc1)C1CCN(Cc2ccc(Oc3ncccn3)cc2)CC1 (centres unmarked) [Compound 731] | – | – | 100 | 100
36 | Nc1ccc(CN2CCC(C(OC(=O)Nc3cc(F)cc(F)c3)c3ccc(C(F)(F)F)cc3)CC2)cc1 (centres unmarked) [Compound 466] | 17 | 77 | – | –
37 | O=C(Nc1cccc(C(F)(F)F)c1)OC(c1ccc(C(F)(F)F)cc1)C1CCN(Cc2ccc(Oc3ccccn3)cc2)CC1 (centres unmarked) [Compound 244] | 100 | 100 | – | –
